Measured values from PubChem BioAssay AID2060490 (Molecular Pharmacology Branch, DTP, NCI, 2025).

System: 885512-296-R-J2-PDC complex spheroid viability
Assay: Anticancer human tumor 885512-296-R-J2-PDC patient-derived breast carcinoma cell line growth inhibition [GQUAD]
Conditions: for IC50: curve of first compound; for viability, T/C: stronger effect = lower value
Outline: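 Viability of tumor cells grown as complex spheroids with endothelial and stromal cells, exposed to drug combinations. Top concentration at or near clinical Cmax (else 10 microM), diluted in half-log increments.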

[1] = second compound 0.0316 µM, first compound 0.0316 µM
[2] = second compound 0.0316 µM, first compound 0.316 µM
[3] = second compound 0.1 µM, first compound 0.0316 µM
[4] = second compound 0.1 µM, first compound 0.316 µM
[5] = second compound 0.316 µM, first compound 0.0316 µM
[6] = second compound 0.316 µM, first compound 0.316 µM
[7] = second compound 1 µM, first compound 0.0316 µM
[8] = second compound 1 µM, first compound 0.316 µM
[9] = second compound 3.16 µM, first compound 0.0316 µM
[10] = second compound 3.16 µM, first compound 0.316 µM
[11] = second compound 10 µM, first compound 0.0316 µM
[12] = second compound 10 µM, first compound 0.316 µM
[13] = second compound 0.0316 µM, first compound 0.1 µM
[14] = second compound 0.0316 µM, first compound 1 µM
[15] = second compound 0.0316 µM, first compound 3.16 µM
[16] = second compound 0.0316 µM, first compound 10 µM
[17] = second compound 0.1 µM, first compound 0.1 µM
[18] = second compound 0.1 µM, first compound 1 µM
[19] = second compound 0.1 µM, first compound 3.16 µM
[20] = second compound 0.1 µM, first compound 10 µM
[21] = second compound 0.316 µM, first compound 0.1 µM
[22] = second compound 0.316 µM, first compound 1 µM
[23] = second compound 0.316 µM, first compound 3.16 µM
[24] = second compound 0.316 µM, first compound 10 µM
[25] = second compound 1 µM, first compound 0.1 µM
[26] = second compound 1 µM, first compound 1 µM
[27] = second compound 1 µM, first compound 3.16 µM
[28] = second compound 1 µM, first compound 10 µM
[29] = second compound 3.16 µM, first compound 0.1 µM
[30] = second compound 3.16 µM, first compound 1 µM
[31] = second compound 3.16 µM, first compound 3.16 µM
[32] = second compound 3.16 µM, first compound 10 µM
[33] = second compound 10 µM, first compound 0.1 µM
[34] = second compound 10 µM, first compound 1 µM
[35] = second compound 10 µM, first compound 3.16 µM
[36] = second compound 10 µM, first compound 10 µM
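Note: spheroids exposed to the compounds for one week.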
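Throughout, for viability, T/C: percent of tumor spheroid viability relative to DMSO vehicle control wells.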

With `CC[C@@]1(O)C(=O)OCc2c1cc1n(c2=O)Cc2cc3c(CN(C)C)c(O)ccc3nc2-1` + Cc1cnc(CNC(=O)c2c(=O)c3ccc(N4CCCN(C)CC4)nc3n3c2sc2ccccc23)cn1 the IC50 (second compound 0.0316 µM) was 13.9 nM, the IC50 (second compound 0.1 µM) was 3.86 nM and the IC50 (second compound 0.316 µM) was < 0.999 nM. For the same compound, the IC50 (second compound 1 µM) was < 0.999 nM, the IC50 (second compound 3.16 µM) was < 0.999 nM and the IC50 (second compound 10 µM) was < 0.999 nM. The viability, T/C (second compound 0.0316 µM, first compound 0.000999 µM) was 82.1%, the viability, T/C (second compound 0.0316 µM, first compound 0.00316 µM) was 77.9% and the viability, T/C (second compound 0.0316 µM, first compound 0.00999 µM) was 62.1%. For the same compound, the viability, T/C [1] was 20.5%, the viability, T/C (second compound 0.0316 µM, first compound 0.0999 µM) was 15.2% and the viability, T/C [2] was 6.65%. It also gave a viability, T/C (second compound 0.1 µM, first compound 0.000999 µM) of 63.8%, a viability, T/C (second compound 0.1 µM, first compound 0.00316 µM) of 52.1% and a viability, T/C (second compound 0.1 µM, first compound 0.00999 µM) of 37.4%. The viability, T/C [3] was 20.1%, the viability, T/C (second compound 0.1 µM, first compound 0.0999 µM) was 13.4% and the viability, T/C [4] was 9.1%. The viability, T/C (second compound 0.316 µM, first compound 0.000999 µM) was 30%, the viability, T/C (second compound 0.316 µM, first compound 0.00316 µM) was 19.1% and the viability, T/C (second compound 0.316 µM, first compound 0.00999 µM) was 21.3%. For the same compound, the viability, T/C [5] was 16.1%, the viability, T/C (second compound 0.316 µM, first compound 0.0999 µM) was 16.9% and the viability, T/C [6] was 12%. It also gave a viability, T/C (second compound 1 µM, first compound 0.000999 µM) of 21.8%, a viability, T/C (second compound 1 µM, first compound 0.00316 µM) of 22.8% and a viability, T/C (second compound 1 µM, first compound 0.00999 µM) of 18.4%. The viability, T/C [7] was 20.1%, the viability, T/C (second compound 1 µM, first compound 0.0999 µM) was 15.2% and the viability, T/C [8] was 12%. For the same compound, the viability, T/C (second compound 3.16 µM, first compound 0.000999 µM) was 29.7%, the viability, T/C (second compound 3.16 µM, first compound 0.00316 µM) was 24% and the viability, T/C (second compound 3.16 µM, first compound 0.00999 µM) was 24.8%. The viability, T/C [9] was 20.2%, the viability, T/C (second compound 3.16 µM, first compound 0.0999 µM) was 12.8% and the viability, T/C [10] was 8.5%. It also gave a viability, T/C (second compound 10 µM, first compound 0.000999 µM) of 0.07%, a viability, T/C (second compound 10 µM, first compound 0.00316 µM) of 0.13% and a viability, T/C (second compound 10 µM, first compound 0.00999 µM) of 0.24%. The viability, T/C [11] was 0.16%, the viability, T/C (second compound 10 µM, first compound 0.0999 µM) was 0.17% and the viability, T/C [12] was 0.14%.
In the case of `O=C(NO)c1cnc(N2CCN(S(=O)(=O)c3ccc4ccccc4c3)CC2)nc1` + Cc1[nH]c2ccc(F)cc2c1-c1nc2c3cccnc3c3ncccc3c2[nH]1, the IC50 (second compound 0.0316 µM) is reported as < 31.6 nM, the IC50 (second compound 0.1 µM) is reported as < 31.6 nM and the IC50 (second compound 0.316 µM) is reported as < 31.6 nM. The IC50 (second compound 1 µM) was < 31.6 nM, the IC50 (second compound 3.16 µM) was < 31.6 nM and the IC50 (second compound 10 µM) was < 31.6 nM. For the same compound, the viability, T/C [1] was 7.49%, the viability, T/C [13] was 2.85% and the viability, T/C [2] was 3.25%. For the same compound, the viability, T/C [14] was 3.35%, the viability, T/C [15] was 2.95% and the viability, T/C [16] was 3.28%. For the same compound, the viability, T/C [3] was 6.66%, the viability, T/C [17] was 3.49% and the viability, T/C [4] was 2.89%. For the same compound, the viability, T/C [18] was 3.93%, the viability, T/C [19] was 2.97% and the viability, T/C [20] was 4.1%. For the same compound, the viability, T/C [5] was 7.12%, the viability, T/C [21] was 4.32% and the viability, T/C [6] was 3.29%. The viability, T/C [22] was 3.62%, the viability, T/C [23] was 3.66% and the viability, T/C [24] was 4.67%. The viability, T/C [7] was 6.46%, the viability, T/C [25] was 4.49% and the viability, T/C [8] was 3.76%. For the same compound, the viability, T/C [26] was 5.02%, the viability, T/C [27] was 5.46% and the viability, T/C [28] was 3.77%. For the same compound, the viability, T/C [9] was 2.35%, the viability, T/C [29] was 2.1% and the viability, T/C [10] was 2.47%. It also gave a viability, T/C [30] of 2.68%, a viability, T/C [31] of 1.7% and a viability, T/C [32] of 2.56%. The viability, T/C [11] was 1.59%, the viability, T/C [33] was 2.99% and the viability, T/C [12] was 1.66%. It also gave a viability, T/C [34] of 1.46%, a viability, T/C [35] of 1.54% and a viability, T/C [36] of 2.58%.
With `Nc1ccn(C2OC(CO)C(O)C2(F)F)c(=O)n1` (stereo not drawn) + Cc1[nH]c2ccc(F)cc2c1-c1nc2c3cccnc3c3ncccc3c2[nH]1 the IC50 (second compound 0.0316 µM) was < 31.6 nM, the IC50 (second compound 0.1 µM) was < 31.6 nM and the IC50 (second compound 0.316 µM) was < 31.6 nM. The IC50 (second compound 1 µM) was < 31.6 nM, the IC50 (second compound 3.16 µM) was < 31.6 nM and the IC50 (second compound 10 µM) was < 31.6 nM. The viability, T/C [1] was 14.6%, the viability, T/C [13] was 3.03% and the viability, T/C [2] was 2.43%. It also gave a viability, T/C [14] of 3.01%, a viability, T/C [15] of 3.2% and a viability, T/C [16] of 2.56%. For the same compound, the viability, T/C [3] was 16.3%, the viability, T/C [17] was 3.26% and the viability, T/C [4] was 3.63%. The viability, T/C [18] was 3.04%, the viability, T/C [19] was 3% and the viability, T/C [20] was 3.74%. It also gave a viability, T/C [5] of 14.6%, a viability, T/C [21] of 3.44% and a viability, T/C [6] of 3.02%. It also gave a viability, T/C [22] of 2.57%, a viability, T/C [23] of 2.96% and a viability, T/C [24] of 3.36%. For the same compound, the viability, T/C [7] was 8.48%, the viability, T/C [25] was 2.45% and the viability, T/C [8] was 2.51%. For the same compound, the viability, T/C [26] was 2.76%, the viability, T/C [27] was 2.94% and the viability, T/C [28] was 2.65%. The viability, T/C [9] was 2.21%, the viability, T/C [29] was 1.43% and the viability, T/C [10] was 1.74%. The viability, T/C [30] was 1.98%, the viability, T/C [31] was 1.96% and the viability, T/C [32] was 1.86%. It also gave a viability, T/C [11] of 1.33%, a viability, T/C [33] of 1.29% and a viability, T/C [12] of 1.17%. It also gave a viability, T/C [34] of 1.35%, a viability, T/C [35] of 1.44% and a viability, T/C [36] of 1.08%.
`CC(C)(O)C1CCC(Nc2ccc3ncc(-c4cccc(C(F)(F)F)c4)n3n2)CC1` (stereo not drawn) + CN(C)c1ccc(Nc2c3ccc(NC(=O)CCN4CCCC4)cc3nc3cc(NC(=O)CCN4CCCC4)ccc23)cc1 was tested, and the IC50 (second compound 0.0316 µM) was 1720 nM, the IC50 (second compound 0.1 µM) was 1510 nM and the IC50 (second compound 0.316 µM) was 1560 nM. The IC50 (second compound 1 µM) was 1550 nM, the IC50 (second compound 3.16 µM) was 1030 nM and the IC50 (second compound 10 µM) was < 31.6 nM. It also gave a viability, T/C [1] of 111%, a viability, T/C [13] of 99.6% and a viability, T/C [2] of 105%. It also gave a viability, T/C [14] of 78.7%, a viability, T/C [15] of 11.9% and a viability, T/C [16] of 23.8%. For the same compound, the viability, T/C [3] was 99.6%, the viability, T/C [17] was 95% and the viability, T/C [4] was 97.9%. The viability, T/C [18] was 68.4%, the viability, T/C [19] was 15.2% and the viability, T/C [20] was 18.6%. For the same compound, the viability, T/C [5] was 106%, the viability, T/C [21] was 98.6% and the viability, T/C [6] was 86.3%. For the same compound, the viability, T/C [22] was 72.2%, the viability, T/C [23] was 9.35% and the viability, T/C [24] was 19.9%. It also gave a viability, T/C [7] of 92.7%, a viability, T/C [25] of 92.4% and a viability, T/C [8] of 86.3%. The viability, T/C [26] was 72.5%, the viability, T/C [27] was 9.81% and the viability, T/C [28] was 16.3%. For the same compound, the viability, T/C [9] was 102%, the viability, T/C [29] was 87.9% and the viability, T/C [10] was 80.5%. It also gave a viability, T/C [30] of 54.9%, a viability, T/C [31] of 4.35% and a viability, T/C [32] of 4.39%. It also gave a viability, T/C [11] of 16.9%, a viability, T/C [33] of 12.6% and a viability, T/C [12] of 16%. For the same compound, the viability, T/C [34] was 8.44%, the viability, T/C [35] was 0.72% and the viability, T/C [36] was 0.22%.
